# From the supplement of paper PMC5579334
# Columns and labels:
# [1] = tested on: ST8814; experiment: relative IC50 (inflection point of fitted dose-response curve, CellTox-Green cytotoxicity, 72 h; top asymptote may be below 50%); higher = less potent
# Method in brief: (§1)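 MPNST cell lines and primary human Schwann cells were grown for 72 h at 37 °C in 384-well plates containing five 10-fold compound dilutions. CellTox-Green, added before seeding at a final 1:1000 dilution, gave fluorescence from DNA released by disrupted cells, and signals were scaled to vehicle and positive-control wells. Curves were fitted with a four-parameter logistic model. Drug sensitivity score and relative IC50 come from these fits, with IC50 censored at the top concentration.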
# [2] = tested on: STS26T; experiment: as above
# Method in brief: as §1
# [3] = tested on: HSC1; experiment: relative IC50 (inflection point of fitted dose-response curve, CellTiter-Glo viability, 72 h; top asymptote may be below 50% inhibition); higher = less potent
# Method in brief: (§2)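 For this screen, 384-well plates were preprinted with each compound at five concentrations in 10-fold steps and seeded with MPNST cell lines or primary human Schwann cells at 750–1000 cells per well. Incubation lasted 72 h at 37 °C, 5% CO2, and CellTiter-Glo ATP luminescence, scaled between vehicle and positive-control wells and averaged over duplicates where available, served as viability. Logistic fits with four parameters were applied. Relative IC50 (censored at the top concentration) and drug sensitivity score derive from these fits, and percent inhibition is at the top concentration.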
# [4] = tested on: HSC2; experiment: as above
# Method in brief: as §2
# [5] = tested on: S462; experiment: as above
# Method in brief: as §2
# [6] = tested on: ST8814; experiment: as above
# Method in brief: as §2
# [7] = tested on: HS-PSS; experiment: relative IC50 (inflection point of fitted dose-response curve, CellTox-Green cytotoxicity, 72 h; top asymptote may be below 50%); higher = less potent
# Method in brief: as §1
# [8] = tested on: HSC1; experiment: as above
# Method in brief: as §1
# [9] = tested on: HSC2; experiment: as above
# Method in brief: as §1
# [10] = tested on: HS-PSS; experiment: relative IC50 (inflection point of fitted dose-response curve, CellTiter-Glo viability, 72 h; top asymptote may be below 50% inhibition); higher = less potent
# Method in brief: as §2
# [11] = tested on: HS-Sch-2; experiment: as above
# Method in brief: as §2
# [12] = tested on: STS26T; experiment: as above
# Method in brief: as §2
# [13] = tested on: YST-1; experiment: as above
# Method in brief: as §2
# [14] = tested on: S1507-2; experiment: as above
# Method in brief: as §2
SMILES,relative IC50 [1] [µM],relative IC50 [2] [µM],relative IC50 [3] [µM],relative IC50 [4] [µM],relative IC50 [5] [µM],relative IC50 [6] [µM],relative IC50 [7] [µM],relative IC50 [8] [µM],relative IC50 [9] [µM],relative IC50 [10] [µM],relative IC50 [11] [µM],relative IC50 [12] [µM],relative IC50 [13] [µM],relative IC50 [14] [µM]
Cc1c(C(=O)Nc2ccc(N3C[C@@H](C)O[C@@H](C)C3)nc2)cccc1-c1ccc(OC(F)(F)F)cc1 [Erismodegib],> 10,> 10,> 10,> 10,> 10,> 10,–,–,–,–,–,–,–,–
CNC(=O)c1ccc(N2C(=S)N(c3ccc(C#N)c(C(F)(F)F)c3)C(=O)C23CCC3)cc1F [RD162],> 10,> 10,–,> 10,> 10,–,> 10,> 10,> 10,> 10,> 10,> 10,> 10,–
Nc1ncn([C@H]2C[C@H](O)[C@@H](CO)O2)c(=O)n1 [Decitabine],> 10,> 10,–,2.26,0.273,–,> 10,> 10,> 10,> 10,0.782,–,> 10,–
Cc1ccc(Nc2nccc(N(C)c3ccc4c(C)n(C)nc4c3)n2)cc1S(N)(=O)=O [Pazopanib],> 10,> 10,–,–,> 10,> 10,> 10,> 10,> 10,0.605,–,> 10,> 10,–
CNC(=O)c1ccc(N2C(=S)N(c3ccc(C#N)c(C(F)(F)F)c3)C(=O)C2(C)C)cc1F [Enzalutamide],> 10,> 10,–,> 10,> 10,–,> 10,> 10,> 10,> 10,> 10,> 10,> 10,–
CC1=C2C[C@H]3[C@@H](CC=C4C[C@@H](O)CC[C@@]43C)[C@@H]2CC[C@]12O[C@@H]1C[C@H](C)CN[C@H]1[C@H]2C [Cyclopamine],> 10,> 10,> 10,> 10,> 10,> 10,–,> 10,> 10,–,–,> 10,–,–
COc1cc2/c(=N/c3ccc(Br)cc3F)nc[nH]c2cc1OCC1CCN(C)CC1 [Vandetanib],–,> 1,> 1,> 1,> 1,> 1,–,> 1,> 1,0.0865,> 1,–,> 1,–
COc1cc2c(Oc3ccc4[nH]c(C)cc4c3F)ncnc2cc1OCCCN1CCCC1 [Cediranib],–,> 1,–,> 1,> 1,> 1,> 1,> 1,–,–,> 1,> 1,> 1,–
CCC/C=C/C=C/C(=O)O[C@H]1/C(=C/C(=O)OC)C[C@H]2C[C@H]([C@@H](C)O)OC(=O)C[C@H](O)C[C@@H]3C[C@H](OC(C)=O)C(C)(C)[C@](O)(C[C@@H]4C/C(=C/C(=O)OC)C[C@H](/C=C/C(C)(C)[C@]1(O)O2)O4)O3 [Bryostatin 1],> 0.1,> 0.1,> 0.1,> 0.1,–,> 0.1,> 0.1,> 0.1,> 0.1,–,0.00041,–,> 0.1,–
COc1ccc(C2=N[C@@H](c3ccc(Cl)cc3)[C@@H](c3ccc(Cl)cc3)N2C(=O)N2CCNC(=O)C2)c(OC(C)C)c1 [Nutlin-3],–,> 10,1.49,1.22,> 10,2.05,> 10,> 10,> 10,–,> 10,–,1.41,–
CC(C)C[C@@H](C(=O)N[C@H](C(=O)OC1CCCC1)c1ccccc1)[C@H](O)C(=O)NO [Tosedostat],–,0.0253,0.138,0.0761,0.424,1.24,> 10,> 10,> 10,3.27,0.258,0.0814,0.222,–
CC1=NN(c2ccc(C(=O)O)cc2)C(=O)C1=Cc1ccc(-c2cc(C)c(C)cc2[N+](=O)[O-])o1 [C646],> 25,> 25,> 25,> 25,–,> 25,> 25,> 25,9.18,–,> 25,> 25,–,–
CCN1CCN(c2ccc(Nc3cc(N(C)C(=O)Nc4c(Cl)c(OC)cc(OC)c4Cl)ncn3)cc2)CC1 [NVP-BGJ398],> 1,> 1,> 1,> 1,> 1,–,> 1,> 1,> 1,> 1,> 1,> 1,> 1,–
CC/C(=C(\c1ccccc1)c1ccc(OCCN(C)C)cc1)c1ccccc1 [Tamoxifen],2.49,–,–,3.37,–,3.34,> 10,> 10,> 10,3.9,2.3,–,3.25,3.95
CC1=C(/C=C/C(C)=C/C=C/C(C)=C/C(=O)O)C(C)(C)CCC1 [Tretinoin],> 10,> 10,0.361,–,> 10,–,> 10,> 10,> 10,> 10,> 10,–,> 10,–
CNC(=O)c1ccccc1Sc1ccc2c(/C=C/c3ccccn3)n[nH]c2c1 [Axitinib],–,1.38,1.2,0.694,0.933,1.36,> 10,–,–,2.58,1.7,1.51,0.972,–
CC(C)N(CCCNC(=O)Nc1ccc(C(C)(C)C)cc1)C[C@H]1O[C@@H](n2cc(Br)c3c(N)ncnc32)[C@H](O)[C@@H]1O [SGC0946],3.07,> 10,–,–,–,3.45,2.49,> 10,> 10,1.94,3,> 10,3.67,2.09
O=C(c1cc(Cc2n[nH]c(=O)c3ccccc23)ccc1F)N1CCN(C(=O)C2CC2)CC1 [Olaparib],3.36,3.43,1.67,1.34,2,3.54,> 10,> 10,–,–,1.36,2.33,0.426,–
CC[C@@H]1C(=O)OC[C@@H]1Cc1cncn1C [Pilocarpine],> 40,> 40,> 40,> 40,> 40,> 40,> 40,> 40,> 40,> 40,–,> 40,> 40,–
COc1nc(N)nc2c1ncn2[C@@H]1O[C@H](CO)[C@@H](O)[C@@H]1O [Nelarabine],> 10,> 10,> 10,> 10,> 10,> 10,> 10,> 10,–,> 10,> 10,> 10,> 10,–
Cc1cccc(-c2nn3c(c2-c2ccnc4ccc(C(N)=O)cc24)CCC3)n1 [Galunisertib],> 1,> 1,> 1,–,–,> 1,> 1,> 1,> 1,> 1,> 1,–,> 1,> 1
Nc1ncnc2c1c(COc1cccc(Cl)c1)nn2C1CCOCC1,> 10,> 10,–,> 10,> 10,> 10,> 10,> 10,> 10,> 10,–,–,> 10,–
Cc1c(N)nc([C@H](CC(N)=O)NC[C@H](N)C(N)=O)nc1C(=O)N[C@H](C(=O)N[C@H](C)[C@@H](O)[C@H](C)C(=O)N[C@H](C(=O)NCCc1nc(-c2nc(C(=O)NCCC[S+](C)C)cs2)cs1)[C@@H](C)O)[C@@H](O[C@@H]1O[C@@H](CO)[C@@H](O)[C@H](O)[C@@H]1O[C@H]1O[C@H](CO)[C@@H](O)[C@H](OC(N)=O)[C@@H]1O)c1c[nH]cn1 [Bleomycin],2.85,0.328,0.58,0.284,2.27,1.62,–,> 10,–,0.835,0.923,1.67,0.594,–
CN(C)C/C=C/C(=O)Nc1cc2c(Nc3ccc(F)c(Cl)c3)ncnc2cc1O[C@H]1CCOC1 [Afatinib],> 1,> 1,> 1,> 1,> 1,> 1,> 1,> 1,> 1,0.148,–,> 1,> 1,–
C=C(c1ccc(C(=O)O)cc1)c1cc2c(cc1C)C(C)(C)CCC2(C)C [Bexarotene],> 10,> 10,–,> 10,> 10,> 10,> 10,> 10,> 10,> 10,> 10,> 10,> 10,–
CO[C@H]1C[C@@H]2CC[C@@H](C)[C@@](O)(O2)C(=O)C(=O)N2CCCC[C@H]2C(=O)O[C@H]([C@H](C)C[C@@H]2CC[C@@H](O)[C@H](OC)C2)CC(=O)[C@H](C)/C=C(\C)[C@@H](O)[C@@H](OC)C(=O)[C@H](C)C[C@H](C)/C=C/C=C/C=C/1C [Sirolimus],> 0.1,> 0.1,–,–,> 0.1,–,> 0.1,> 0.1,> 0.1,0.00371,0.00638,0.0217,0.00609,–
Nc1cccc2c1C(=O)N(C1CCC(=O)NC1=O)C2=O (centres undefined) [Pomalidomide],> 10,> 10,> 10,> 10,–,> 10,> 10,> 10,> 10,> 10,> 10,> 10,> 10,–
